In patent US20080300288A1, “Alkenyldiarylmethanes, Fused Analogs And Syntheses Thereof” (PURDUE RESEARCH FOUNDATION, priority 2005, published 2008):

What was measured:
[1] = In vitro hydrolytic stability study in rat plasma; format: in vitro ADME; details: for Rat Plasma tp1/2 (min ± SD): rat plasma in vitro, half-life; for hydrolysis in rat plasma: 37° C.
Protocol: NMR spectra were obtained at 300 MHz (^1H) and 75 MHz (^13C) in CDCl3 using CHCl3 as internal standard. Flash chromatography was performed with 230-400 mesh silica gel. […] Melting points are uncorrected. Unless otherwise stated, chemicals and solvents were of reagent grade and used as obtained from commercial sources without further purification. Tetrahydrofuran (THF) was freshly distilled from sodium/benzophenone ketyl radical prior to use. Dichloromethane was freshly distilled from calcium hydride prior to use. Lyophilized rat plasma (lot 052K7609) was obtained from Sigma Chemical Co., St. Louis, Mo. All yields given refer to isolated yields.
In vitro Hydrolytic Stability Study in Rat Plasma. […] See, Silvestri, M. A.; Nagarajan, M.; De Clercq, E.; Pannecouque, C.; Cushman, M. Design, Synthesis, Anti-HIV Activities, and Metabolic Stabilities of Alkenyldiarylmethane (ADAM) Non-nucleoside Reverse Transcriptase Inhibitors. J. Med. Chem. 2004, 47, 3149-3162, the disclosure of which is incorporated herein by reference.

[2] = biological target: T1, recombinant HIV-1 RT enzyme (p66/51 dimer) (Human immunodeficiency virus type 1 group M subtype B, UniProt P04585); assay: RT inhibition assay, incorporation of [32P]GTP into poly(rC)/oligo(dG); format: biochemical
T1 construct: recombinant HIV-1 RT enzyme (p66/51 dimer)
Protocol: RT Inhibition Assay. Analysis of the effects of the compounds on recombinant HIV-1 RT enzyme (p66/51 dimer) was performed as previously described. See, Buckheit, R. W. J.; Fliakas-Boltz, V.; Decker, W. D.; Robertson, J. L.; Stup, T. L.; Pyle, C. […] Antiviral Res. 1995, 26, 117-132, the disclosure of which is incorporated herein by reference. Briefly, inhibition of purified recombinant reverse transcriptase enzyme was measured by the incorporation of [^32P]GTP into poly(rC)/oligo(dG) (rCdG) homopolymer template primers.

[3] = Cytotoxicity in mock-infected CEM-SS cells; format: cell-based; details: human, uninfected (mock-infected) CEM-SS cells
Protocol: In Vitro Antiviral Assays. Evaluation of the antiviral activity of compounds against HIV-1RF infection in CEM-SS cells was performed using the MTS cytoprotection assay as previously described. See, Rice, W. G.; Bader, J. P. Discovery and in Vitro Development of AIDS Antiviral Drugs as Biopharmaceuticals. Adv. Pharmacol. (San Diego) 1995, 6, 389-438, the disclosure of which is incorporated herein by reference. […] See, Pauwels, R.; Balzarini, J.; Baba, M.; Snoeck, R.; Schols, […].; De […]. Rapid and Automated Tetrazolium-based Colorimetric Assay for Detection of Anti-HIV Compounds. J. Virol. Methods 1988, 20, 309-321, the disclosure of which is incorporated herein by reference.

[4] = tested on: HIV-1RF; assay: MTS cytoprotection assay, HIV-1RF infection in CEM-SS cells; format: cell-based; details: Human immunodeficiency virus 1; HIV-1RF in CEM-SS cells; read-out: EC50 HIV-1RF (inhibition of cytopathicity)
Protocol: In Vitro Antiviral Assays. Evaluation of the antiviral activity of compounds against HIV-1RF infection in CEM-SS cells was performed using the MTS cytoprotection assay as previously described. See, Rice, W. G.; Bader, J. P. Discovery and in Vitro Development of AIDS Antiviral Drugs as Biopharmaceuticals. Adv. Pharmacol. (San Diego) 1995, 6, 389-438, the disclosure of which is incorporated herein by reference. […] See, Pauwels, R.; Balzarini, J.; Baba, M.; Snoeck, R.; Schols, D.; Herdewijn, P.; Desmyter, J.; De Clercq, E. Rapid and Automated Tetrazolium-based Colorimetric Assay for Detection of Anti-HIV Compounds. J. Virol. Methods 1988, 20, 309-321, the disclosure of which is incorporated herein by reference.

[5] = tested on: HIV-2 strain (ROD); assay: MTT assay, HIV-2 strain (ROD) in MT-4 cells; format: cell-based; details: Human immunodeficiency virus 2, MT4; HIV-2ROD in MT-4 cells; read-out: EC50 HIV-2-ROD (inhibition of cytopathicity)
[6] = tested on: HIV-1 strain IIIB; assay: MTT assay, HIV-1 strain IIIB in MT-4 cells; format: cell-based; details: Human immunodeficiency virus 1, MT4; HIV-1IIIB in MT-4 cells; read-out: EC50 HIV-1IIIB (inhibition of cytopathicity)
[7] = Cytotoxicity in mock-infected MT-4 cells; format: cell-based; details: human, uninfected (mock-infected) MT-4 cells

| Structure (SMILES) | Rat Plasma tp1/2 (min ± SD) [1] | IC50 [2] | CC50 [3] | EC50 [4] | hydrolysis in rat plasma ([1]; after three days) | EC50 [5] | EC50 [6] | CC50 [7] | hydrolysis in rat plasma ([1]; after 1 day) |
| --- | --- | --- | --- | --- | --- | --- | --- | --- | --- |
| COC(=O)CCC/C=C(/c1cc(C)c2on(C)c(=O)c2c1)c1cc(Cl)ccc1OC [Compound 21, (Z)-6-(5-Chloro-2-methoxyphenyl)-6-(2,3-dihydro-2,7-dimethyl-3-oxo-benzo[d]isoxazol-5-yl)-hex-5-enoic Acid Methyl Ester] | 0.48 ± 0.06 min | 8.2 µM | 13 µM | > 100 µM |  |  |  |  |  |
| COc1ccc(/C(=C\CCN2CCOC2=O)c2cc(F)cc(C(F)(F)F)c2)cc1OC [Compound 8, (E)-3-[4-(3-Fluoro-5-trifluoromethylphenyl)-4-(3,4-dimethoxyphenyl)-but-3-enyl]-oxazolidin-2-one] |  | 97.8 µM | 14.5 µM | > 100 µM | had not been hydrolyzed |  |  |  |  |
| COC(=O)CCC/C=C(/c1cc(C)c2on(C)c(=O)c2c1)c1cc(C)c2oc(=O)n(C)c2c1 [Compound 65, (Z)-6-(2,7-Dimethyl-3-oxo-2,3-dihydro-benzo[d]isoxazol-5-yl)-6-(3,7-dimethyl-2-oxo-2,3-dihydro-benzoxazol-5-yl)-hex-5-enoic Acid Methyl Ester] | 0.46 ± 0.03 min | 49.2 µM | 11.1 µM | 1.79 µM |  | > 36.5 µM | 4.48 µM | 36.5 µM |  |
| COC(=O)CCC/C=C(\c1cccc(C#N)c1)c1cc(Cl)c(OC)c(C(=O)OC)c1 [Compound 17, (E)-3-Chloro-5-[1-(3-cyanophenyl)-5-methoxycarbonyl-pent-1-enyl]-2-methoxybenzoic Acid Methyl Ester] | 0.44 ± 0.05 min | 0.75 µM | 20.2 µM | 7.1 µM |  | > 223 µM | 8.55 µM | 213 µM |  |
| COC(=O)CCC/C=C(\c1cc(F)cc(C(F)(F)F)c1)c1cc(C)c2onc(OC)c2c1 [Compound 19, (Z)-6-(3-Fluoro-5-trifluoromethylphenyl)-6-(3-methoxy-7-methylbenzo[d]isoxazol-5-yl)-hex-5-enoic Acid Methyl Ester] |  | 0.9 µM |  |  |  |  |  |  |  |
| COC(=O)CCC/C=C(\c1cc(F)cc(C(F)(F)F)c1)c1cc(C)c2on(C)c(=O)c2c1 [Compound 22, (Z)-6-(2,3-Dihydro-2,7-dimethyl-3-oxo-benzo[d]isoxazol-5-yl)-6-(3-fluoro-5-trifluoromethylphenyl)-hex-5-enoic Acid Methyl Ester] |  | > 100 µM | 16.8 µM | > 100 µM |  | > 43.2 µM | > 35.7 µM | 39.8 µM |  |
| COC(=O)CCC/C=C(\c1cccc(C#N)c1)c1cc(C)c2onc(OC)c2c1 [Compound 20, (E)-6-(3-Cyanophenyl)-6-(3-methoxy-7-methylbenzo[d]isoxazol-5-yl)-hex-5-enoic Acid Methyl Ester] | 1.16 ± 0.08 min | 5.7 µM | 0.8 µM | > 100 µM |  | > 5.63 µM | > 2.05 µM | 4.69 µM |  |
| COC(=O)CCC/C=C(\c1cccc(C#N)c1)c1cc(Cl)ccc1OC [Compound 18, (E)-6-(5-Chloro-2-methoxyphenyl)-6-(3-cyanophenyl)-hex-5-enoic Acid Methyl Ester] | 0.42 ± 0.02 min | 0.78 µM | 16.3 µM | 7 µM |  | > 67.6 µM | 9.11 µM | ≥ 45.1 µM |  |
| COC(=O)c1cc(/C(=C\CCN2CCOC2=O)c2ccc(OC)c(OC)c2)cc(C)c1OC [Compound 3] | 5.76 ± 0.68 min | 1 µM | 0.49 µM | > 100 µM |  | > 1.05 µM | > 1.05 µM | 1.05 µM |  |
| COC(=O)CCC/C=C(\c1cc(C)c(OC)c(C(=O)OC)c1)c1cc(Cl)ccc1OC [Compound 14, (E)-5-[1-(5-Chloro-2-methoxyphenyl)-5-methoxycarbonyl-pent-1-enyl]-2-methoxy-3-methylbenzoic Acid Methyl Ester] | 0.49 ± 0.02 min | > 100 µM | 8.3 µM | > 100 µM |  |  |  |  |  |
| COC(=O)CCC/C=C(\c1cc(F)cc(C(F)(F)F)c1)c1cc(C)c(OC)c(C(=O)OC)c1 [Compound 12, (Z)-5-[1-(3-Fluoro-5-trifluoromethylphenyl)-5-methoxycarbonyl-pent-1-enyl]-2-methoxy-3-methylbenzoic Acid Methyl Ester] |  | > 100 µM | > 5 µM | > 5 µM |  | > 5.89 µM | > 5.51 µM | 5.7 µM |  |
| COC(=O)CCC/C=C(/c1cc(C)c2onc(OC)c2c1)c1cc(C)c2oc(=O)n(C)c2c1 [Compound 67, (Z)-6-(3,7-Dimethyl-2-oxo-2,3-dihydro-benzoxazol-5-yl)-6-(3-methoxy-7-methyl-benzo[d]isoxazol-5-yl)-hex-5-enoic Acid Methyl Ester] |  | 0.25 µM |  |  |  |  |  |  |  |
| COC(=O)CCC/C=C(\c1cc(F)cc(C(F)(F)F)c1)c1cc(Cl)c(OC)c(C(=O)OC)c1 [Compound 13, (E)-3-Chloro-5-[1-(3-fluoro-5-trifluoromethylphenyl)-5-methoxycarbonyl-pent-1-enyl]-2-methoxy-benzoic Acid Methyl Ester] |  | > 100 µM | 16.1 µM | > 100 µM |  |  |  |  |  |
| COC(=O)CCC/C=C(/c1cc(C)c(OC)c(C(=O)OC)c1)c1cc(Cl)ccc1OC [Compound 11, (Z)-5-[1-(5-Chloro-2-methoxyphenyl)-5-methoxycarbonyl-pent-1-enyl]-2-methoxy-3-methylbenzoic Acid Methyl Ester] | 0.98 ± 0.02 min | > 100 µM | 8 µM | > 100 µM |  |  |  |  |  |
| COC(=O)CCC/C=C(/c1cc(Cl)c(OC)c(C(=O)OC)c1)c1cc(Cl)ccc1OC [Compound 10, (Z)-3-Chloro-5-[1-(5-chloro-2-methoxyphenyl)-5-methoxycarbonyl-pent-1-enyl]-2-methoxybenzoic Acid Methyl Ester] | 0.77 ± 0.08 min | > 100 µM | 15.5 µM | > 100 µM |  |  |  |  |  |
| COC(=O)c1cc(/C(=C\CCN2CCOC2=O)c2cc(F)cc(C(F)(F)F)c2)cc(C)c1OC [Compound 7, (E)-5-[1-(3-Fluoro-5-trifluoromethylphenyl)-4-(2-oxo-oxazolidin-3-yl)-but-1-enyl]-2-methoxy-3-methylbenzoic Acid Methyl Ester] |  | 15.7 µM | 15 µM | 8.3 µM |  |  |  |  |  |
| COc1ccc(/C(=C\CCN2CCOC2=O)c2cc(F)ccc2C(F)(F)F)cc1OC [Compound 9, (E)-3-[4-(5-Fluoro-2-trifluoromethylphenyl)-4-(3,4-dimethoxyphenyl)-but-3-enyl]-oxazolidin-2-one] |  | > 100 µM | 26.7 µM | > 100 µM | had not been hydrolyzed |  |  |  |  |
| COc1noc2c(C)cc(/C(=C\CCN3CCOC3=O)c3cc(C)c4oc(=O)n(C)c4c3)cc12 [Compound 68, (E)-5-[1-(3-Methoxy-7-methylbenzo[d]isoxazol-5-yl)-4-(2-oxoxazolidin-3-yl)-but-1-enyl]-3,7-dimethyl-3H-benzoxazol-2-one] |  | 3.6 µM |  |  |  |  |  |  | had not been hydrolyzed |
